In publication PMC6461439, “Enzyme activity and selectivity filter stability of ancient TRPM2 channels were simultaneously lost in early vertebrates” (eLife, 2019):
pEC50: −log10 of the molar value.

Key:
nvTRPM2 [1] = molecular target: T1, nvTRPM2 (Nematostella vectensis, UniProt A7T1N0, E1446K/E1447K)
T1 construct: gene TRPM2

nvTRPM2 [2] = molecular target: T2, nvTRPM2 (Nematostella vectensis, UniProt A7T1N0, E1443I/F1444L)
T2 construct: gene TRPM2
T2 sequence (A7T1N0 whole entry E1443I/F1444L): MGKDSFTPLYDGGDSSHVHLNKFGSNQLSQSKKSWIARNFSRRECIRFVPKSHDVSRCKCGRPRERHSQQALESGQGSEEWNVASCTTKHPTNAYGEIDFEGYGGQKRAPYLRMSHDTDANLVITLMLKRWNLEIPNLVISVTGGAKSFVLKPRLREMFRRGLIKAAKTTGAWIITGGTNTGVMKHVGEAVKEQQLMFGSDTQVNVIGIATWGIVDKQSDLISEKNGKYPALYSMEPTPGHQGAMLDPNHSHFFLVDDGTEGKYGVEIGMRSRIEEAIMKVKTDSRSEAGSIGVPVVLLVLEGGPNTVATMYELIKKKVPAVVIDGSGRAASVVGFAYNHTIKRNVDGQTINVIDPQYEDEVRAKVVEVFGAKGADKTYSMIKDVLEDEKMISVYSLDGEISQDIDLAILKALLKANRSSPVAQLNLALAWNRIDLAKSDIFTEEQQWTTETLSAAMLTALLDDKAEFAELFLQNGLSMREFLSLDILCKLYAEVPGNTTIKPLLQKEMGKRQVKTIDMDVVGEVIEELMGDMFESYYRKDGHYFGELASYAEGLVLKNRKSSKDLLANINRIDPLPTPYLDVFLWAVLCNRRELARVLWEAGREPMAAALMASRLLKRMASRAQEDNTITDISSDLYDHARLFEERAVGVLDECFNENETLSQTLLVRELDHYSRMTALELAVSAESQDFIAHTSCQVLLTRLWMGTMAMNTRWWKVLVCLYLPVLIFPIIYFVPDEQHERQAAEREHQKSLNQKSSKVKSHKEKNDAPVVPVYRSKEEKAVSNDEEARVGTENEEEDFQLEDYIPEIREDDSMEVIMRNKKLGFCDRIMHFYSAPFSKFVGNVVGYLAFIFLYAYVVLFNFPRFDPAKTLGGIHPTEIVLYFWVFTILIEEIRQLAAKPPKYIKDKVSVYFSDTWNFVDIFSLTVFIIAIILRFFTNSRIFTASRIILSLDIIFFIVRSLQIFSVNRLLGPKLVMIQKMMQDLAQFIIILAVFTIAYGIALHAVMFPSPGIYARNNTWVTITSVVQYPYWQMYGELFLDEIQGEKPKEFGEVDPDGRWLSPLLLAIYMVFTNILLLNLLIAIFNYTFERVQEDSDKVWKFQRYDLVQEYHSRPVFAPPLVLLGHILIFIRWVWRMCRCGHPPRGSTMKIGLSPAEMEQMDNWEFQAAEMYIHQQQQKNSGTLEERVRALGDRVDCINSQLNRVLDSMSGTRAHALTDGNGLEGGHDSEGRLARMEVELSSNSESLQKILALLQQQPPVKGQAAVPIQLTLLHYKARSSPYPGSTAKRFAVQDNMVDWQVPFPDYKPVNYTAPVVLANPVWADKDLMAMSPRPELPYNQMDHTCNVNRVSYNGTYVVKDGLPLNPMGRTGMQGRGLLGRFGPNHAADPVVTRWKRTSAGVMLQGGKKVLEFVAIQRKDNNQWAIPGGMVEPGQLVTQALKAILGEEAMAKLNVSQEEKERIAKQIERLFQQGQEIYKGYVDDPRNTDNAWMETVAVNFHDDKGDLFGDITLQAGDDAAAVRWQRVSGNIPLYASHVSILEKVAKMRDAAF

T1 sequence (A7T1N0 whole entry E1446K/E1447K): as the sequence (A7T1N0 whole entry E1443I/F1444L) above, with I1443E, L1444F, E1446K, E1447K counted along it

Nc1ncnc2c1ncn2[C@@H]1O[C@H](COP(=O)(O)OP(=O)(O)OC[C@H]2OC(O)[C@H](O)[C@@H]2O)[C@@H](O)[C@H]1O (some centres unmarked) [ADPR]
pEC50 (nvTRPM2 [1]): ~5.70
pEC50 (nvTRPM2 [2]): ~5.70
